Measured values from US9040526B2, “Benzylpyrrolidinone derivatives as modulators of chemokine receptor activity” (Bristol-Myers Squibb Company, priority 2010, dated 2015).

These compounds were tested against T1, CCR2 receptor (Homo sapiens, UniProt P41597) (assay: THP-1 monocytic cell binding: whole cell-based radioligand competition assay (125I-human MCP-1)). Details: THP-1 cells expressing endogenous CCR2; 125I-MCP-1 tracer 0.2 nM; n = 1 unless otherwise noted.
T1 construct: THP-1 human monocytic leukemic cell line, which expresses endogenous CCR2; endogenous in cells; host or cells: THP-1 human monocytic leukemic cell line (whole cells)
T1 sequence (P41597 1-360 isoform P41597-2): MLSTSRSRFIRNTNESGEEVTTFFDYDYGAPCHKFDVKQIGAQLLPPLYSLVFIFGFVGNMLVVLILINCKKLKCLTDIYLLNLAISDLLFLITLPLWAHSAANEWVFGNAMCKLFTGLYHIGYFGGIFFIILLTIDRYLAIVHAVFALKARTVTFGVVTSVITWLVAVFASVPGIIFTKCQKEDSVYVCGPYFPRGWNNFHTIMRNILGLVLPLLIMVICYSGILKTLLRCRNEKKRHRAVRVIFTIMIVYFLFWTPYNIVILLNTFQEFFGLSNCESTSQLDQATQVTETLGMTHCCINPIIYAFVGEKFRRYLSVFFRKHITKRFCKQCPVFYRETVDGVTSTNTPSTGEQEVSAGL
Description: THP-1 Monocytic Cell Binding: Whole Cell-Based Assay
The human CCR2 binding assay was also established with the THP-1 human monocytic leukemic cell line, which expresses endogenous CCR2, using ^125I-human MCP-1 as the tracer ligand. Radioligand competition binding assays were used for assessment of binding affinity of test compounds to the CCR2 receptor. For radioligand competition studies, 100 μl containing 2.5×10^5 THP-1 cells/well (in assay buffer containing 50 mM HEPES, pH7.4, 5 mM MgCl2, 1 mM CaCl2 and 0.5% BSA) were added to 96-well assay plates containing the test compounds in 3-fold serial dilution, with final concentrations ranging from 5 μM to 100 pM. Subsequently, 50 μl ^125I-MCP-1 radioligand at a final concentration of 0.2 nM in assay buffer were added to the reaction. After a 90 minute incubation period at room temperature, the binding reaction was terminated by harvesting on GF/B filter plates (PerkinElmer Cat. No. 6005177) followed by washing with ice-cold wash buffer (50 mM HEPES, pH 7.4, 0.1% BSA, 0.5 M NaCl) to remove unbound ligand. After washing, the plate was dried for 45 minutes at 60° C. followed by addition of 40 μl MicroScint 20 scintillation fluid, sealed and analyzed by the Packard TopCount reader. Non-specific binding was determined in the presence of 10 μM (a molar excess of 5000 fold) of an in-house CCR2 small molecule antagonist (CCR2 IC50=2 nM). Specific binding of ^125I-MCP-1 was calculated as the difference between total and non-specific binding. The competition data was plotted as a percentage inhibition of radioligand specific bound in the absence of test compound (percent of total signal). After correcting for non-specific binding, IC50 values were determined. The IC50 is defined as the concentration of test compound required to reduce ^125-MCP-1 specific binding by 50% and was calculated using the four parameter logistic equation to fit the normalized data.
Compounds of the present invention were tested in the THP-1 monocytic binding assay described above and the results shown in Table 3 below were obtained.

Ki [nM] | Structure (SMILES)
639 | CC(C)C1(CCNC2CCC(O)CC2)CC2Oc3ccc(C(F)(F)F)cc3CN2C1=O (mixture of isomers) [Example 3i, 2-(2-((1r,4r)-4-hydroxycyclohexylamino)ethyl)-2-isopropyl-7-(trifluoromethyl)-2,3,3a,9-tetrahydro-1H-benzo[e] pyrrolo[2,1-b][1,3]oxazin-1-one]
934 | CC(C)C1(CCN2CCC(c3ccccc3)CC2)CC2Oc3ccc(C(F)(F)F)cc3CN2C1=O (single isomer, unassigned) [3b, diastereomer 1]
37.8 | CC(C)C1(CCN2CCC(c3ccccc3)CC2)CC2Oc3ccc(C(F)(F)F)cc3CN2C1=O (single isomer, unassigned) [3b, diastereomer 2]
45.4 | CC(C)C1(CCN2CCC3(C=Cc4ccccc43)CC2)CC2Oc3ccc(C(F)(F)F)cc3CN2C1=O (single isomer, unassigned) [3f, diastereomer 1]
11 | CC(C)C1(CCN2CCC3(C=Cc4ccccc43)CC2)CC2Oc3ccc(C(F)(F)F)cc3CN2C1=O (single isomer, unassigned) [3f, diastereomer 2]
495 | CC(C)C1(CCNC2CCOCC2)CC2Oc3ccc(C(F)(F)F)cc3CN2C1=O (single isomer, unassigned) [3h, diastereomer 2]
983 | CC(C)C1(CCN2CCCCC2)CCN(Cc2cc(C(F)(F)F)cc(C(F)(F)F)c2)C1=O (stereo not shown) [Example 1a, 1-(3,5-bis(trifluoromethyl)benzyl)-3-isopropyl-3-(2-(piperidin-1-yl)ethyl)pyrrolidin-2-one]
933 | CC(C)C1(CCN2CCC(c3ccccc3)CC2)CCN(Cc2cc(C(F)(F)F)cc(C(F)(F)F)c2)C1=O (stereo not shown) [Example 1b, 1-(3,5-bis(trifluoromethyl)benzyl)-3-isopropyl-3-(2-(4-phenylpiperidin-1-yl)ethyl)pyrrolidin-2-one]
736 | CC(C)C1(CCN2CC[C@@]3(C=Cc4ccccc43)[C@@H](C)C2)CCN(Cc2cc(C(F)(F)F)cc(C(F)(F)F)c2)C1=O (stereo partly drawn) [Example 1c, 1-(3,5-bis(trifluoromethyl)benzyl)-3-isopropyl-3-(2-((1R,3′R)-3′-methylspiro[indene-1,4′-piperidine]-1′-yl)ethyl) pyrrolidin-2-one]
3510 | CC(C)C1(CCCN2CCC(c3ccccc3)CC2)CCN(Cc2cc(C(F)(F)F)cc(C(F)(F)F)c2)C1=O (stereo not shown) [Example 2a, 1-(3,5-bis(trifluoromethyl)benzyl)-3-isopropyl-3-(3-(4-phenylpiperidin-1-yl)propyl)pyrrolidin-2-one]
2540 | CC(C)C1(CCNC(C)(C)C)CC2Oc3ccc(C(F)(F)F)cc3CN2C1=O (stereo not shown) [Example 3a, 2-(2-(tert-butylamino)ethyl)-2-isopropyl-7-(trifluoromethyl)-2,3,3,a,9-tetrahydro-1H-benzo[e]pyrrolo[2,1-b][1,3]oxazin-1-one]
2610 | CC(C)C1(CCN2CCC(c3cccc(C(=O)O)c3)CC2)CC2Oc3ccc(C(F)(F)F)cc3CN2C1=O (stereo not shown) [Example 3c, 3-(1-(2-(2-isopropyl-1-oxo-7-(trifluoromethyl)-2,3,3a,9-tetrahydro-1H-benzo[e]pyrrolo[2,1-b][1,3]oxazin-2-yl)ethyl)piperidin-4-yl)benzoic acid]
1280 | CC(C)C1(CCN2CCC(n3c(=O)[nH]c4ccccc43)CC2)CC2Oc3ccc(C(F)(F)F)cc3CN2C1=O (stereo not shown) [Example 3j, 2-isopropyl-2-(2-(4-(2-oxo-2,3-dihydro-1H-benzo[d]imidazol-1-yl)piperidin-1-yl)ethyl)-7-(trifluoromethyl)-2,3,3a,9-tetrahydro-1H-benzo[e]pyrrolo[2,1-b][1,3] oxazin-1-one]
1410 | CC(C)C1(CCN2CCN(c3ccc(F)cc3)CC2)CC2Oc3ccc(C(F)(F)F)cc3CN2C1=O (stereo not shown) [Example 3k, 2-(2-(4-(4-fluorophenyl)piperazin-1-yl)ethyl)-2-isopropyl-7-(trifluoromethyl)-2,3,3a,9-tetrahydro-1H-benzo[e]pyrrolo[2,1-b][1,3] oxazin-1-one]
7910 | CC(C)C1(CCN2CCN(C)CC2)CC2Oc3ccc(C(F)(F)F)cc3CN2C1=O (stereo not shown) [Example 3l, 2-isopropyl-2-(2-(4-methylpiperazin-1-yl)ethyl)-7-(trifluoromethyl)-2,3,3a,9-tetrahydro-1H-benzo[e]pyrrolo[2,1-b][1,3]oxazin-1-one]
153 | CC(C)C1(CCN2CCC(O)(c3ccccc3)CC2)CC2Oc3ccc(C(F)(F)F)cc3CN2C1=O (stereo not shown) [Example 3m, 2-(2-(4-hydroxy-4-phenylpiperidin-1-yl)ethyl)-2-isopropyl-7-(trifluoromethyl)-2,3,3a,9-tetrahydro-1H-benzo[e]pyrrolo[2,1-b][1,3]oxazin-1-one]
1490 | CC(C)C1(CCN2CCC(Cc3ccccc3)CC2)CC2Oc3ccc(C(F)(F)F)cc3CN2C1=O (stereo not shown) [Example 3n, 2-(2-(4-benzylpiperidin-1-yl)ethyl)-2-isopropyl-7-(trifluoromethyl)-2,3,3a,9-tetrahydro-1H-benzo[e] pyrrolo[2,1-b][1,3]oxazin-1-one]
3890 | CC(C)C1(CCN2CCc3ccccc3C2)CC2Oc3ccc(C(F)(F)F)cc3CN2C1=O (stereo not shown) [Example 3o, 2-(2-(3,4-dihydroisoquinolin-2(1H)-yl)ethyl)-2-isopropyl-7-(trifluoromethyl)-2,3,3a,9-tetrahydro-1H-benzo[e] pyrrolo[2,1-b][1,3]oxazin-1-one]
23 | CC(C)C1(CCN2CCC(c3ccccc3)C2)CC2Oc3ccc(C(F)(F)F)cc3CN2C1=O (stereo not shown) [Example 3p, 2-isopropyl-2-(2-(3-phenylpyrrolidin-1-yl)ethyl)-7-(trifluoromethyl)-2,3,3a,9-tetrahydro-1H-benzo[e] pyrrolo[2,1-b][1,3] oxazin-1-one]
